From ChEMBL document CHEMBL5365461, “Degradation of Cyclin-Dependent Kinase 9/Cyclin T1 by Optimized Microtubule-Associated Protein 1 Light Chain 3 Beta-Recruiting Coumarin Analogs” (J Med Chem, 2023)
Activity calls are given as the source filed them. The rule behind the calls is not given here.

Columns and labels:
[1] = target: CDK9/cyclin T1 (Homo sapiens) (UniProt O60563+P50750); test: Induction of CDK9/CyclinT1 degradation in human U2932 cells at 100 nM measured after 24 hrs by immunoblotting analysis; assay type: cell-based
[2] = target: Cyclin-dependent kinase 9 (Homo sapiens) (UniProt P50750); test: Induction of CDK9 42 kDa degradation in human U2932 cells assessed as maximal efficacy at 1 to 1000 nM by immunoblotting analysis relative to control; assay type: cell-based; conditions: dose 1-1000 nM
Sequence of Cyclin-dependent kinase 9 (Homo sapiens) (P50750 whole entry): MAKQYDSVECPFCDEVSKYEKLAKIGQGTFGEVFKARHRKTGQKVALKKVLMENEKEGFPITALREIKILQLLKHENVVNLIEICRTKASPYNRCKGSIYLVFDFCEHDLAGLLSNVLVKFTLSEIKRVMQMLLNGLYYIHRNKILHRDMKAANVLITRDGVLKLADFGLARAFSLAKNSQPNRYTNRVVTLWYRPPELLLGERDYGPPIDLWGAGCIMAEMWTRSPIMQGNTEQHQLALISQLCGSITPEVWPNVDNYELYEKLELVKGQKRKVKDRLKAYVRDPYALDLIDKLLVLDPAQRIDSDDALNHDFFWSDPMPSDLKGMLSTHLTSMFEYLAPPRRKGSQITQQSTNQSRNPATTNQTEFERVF

[3] = target: Cyclin-dependent kinase 9 (Homo sapiens) (UniProt P50750); test: Induction of CDK9 42 kDa degradation in human U2932 cells at 100 nM by immunoblotting analysis; assay type: cell-based; conditions: time 1-24 hrs, TDE = time-dependent effect
[4] = target: Cyclin-dependent kinase 1 (Homo sapiens) (UniProt P06493); test: Induction of CDK1 degradation in human U2932 cells at 100 nM incubated for 24 hrs by immunoblotting analysis; assay type: cell-based
Sequence of Cyclin-dependent kinase 1 (Homo sapiens) (P06493 whole entry, looked up): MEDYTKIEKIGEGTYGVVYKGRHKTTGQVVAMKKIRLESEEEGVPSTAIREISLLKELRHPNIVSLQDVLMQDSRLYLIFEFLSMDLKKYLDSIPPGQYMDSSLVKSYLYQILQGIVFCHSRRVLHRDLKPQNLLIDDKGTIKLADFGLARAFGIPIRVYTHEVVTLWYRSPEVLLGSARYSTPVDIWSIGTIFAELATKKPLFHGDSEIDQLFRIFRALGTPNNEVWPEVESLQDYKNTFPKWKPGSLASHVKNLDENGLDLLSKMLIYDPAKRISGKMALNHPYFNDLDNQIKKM

HCT-8 = test: Cytotoxicity against human HCT-8 cells assessed as inhibition of cell growth measured after 72 hrs by CCK-8 assay; assay type: functional, cell-based
U2932 [5] = test: Downregulation of c-Myc protein level in human U2932 cells incubated for 6 hrs by RT-qPCR analysis; assay type: functional, cell-based; conditions: dose 10-1000 nM
U2932 [6] = test: Induction of apoptosis in human U2932 cells assessed as late apoptotic cells at 1000 nM incubated for 24 hrs by AnnexinV-FITC/PI staining based flow cytometry analysis (reference value: 5.95%); assay type: functional
[7] = target: Cyclin-dependent kinase 9 (Homo sapiens) (UniProt P50750); test: Induction of CDK9 55 kDa degradation in human U2932 cells at 500 nM incubated for 12 hrs in presence of HCQ by immunoblotting analysis; assay type: cell-based
[8] = target: Cyclin-dependent kinase 9 (Homo sapiens) (UniProt P50750); test: Induction of CDK9 42 kDa degradation in human U2932 cells at 500 nM incubated for 12 hrs in presence of MG132 by immunoblotting analysis; assay type: cell-based
U2932 [9] = test: Induction of LC3B […] in human U2932 cells at 500 nM incubated for 12 hrs in presence of BafA1 by Co-immunoprecipitation analysis; assay type: cell-based
[10] = Half life in CD-1 mouse at 5 mg/kg, ip measured after 24 hrs by LC-MS/MS analysis; assay type: ADME, organism-based; conditions: in vivo
[11] = Tmax in CD-1 mouse at 5 mg/kg, ip measured after 24 hrs by LC-MS/MS analysis; assay type: ADME, organism-based; conditions: in vivo
[12] = Observed MRTinfinity in CD-1 mouse at 1 mg/kg, iv measured after 24 hrs by LC-MS/MS analysis; assay type: ADME, organism-based; conditions: in vivo
MV4-11 [13] = test: Antitumor activity against human MV4-11 cells xenografted in mouse assessed as reduction in tumor growth at 5 mg/kg, ip qd measured after 15 days; assay type: functional, organism-based; conditions: time 15.0 day
MV4-11 [14] = test: Antitumor activity against human MV4-11 cells xenografted in mouse assessed as tumor growth inhibition at 5 mg/kg, ip qd measured after 15 days; assay type: functional; conditions: MV4-11, 360 h, time 15 day, read-out: TGI
[15] = Toxicity in mouse xenografted with human MV4-11 cells assessed as change in body weight at 5 mg/kg, ip qd measured after 15 days; assay type: organism-based; conditions: in vivo, 360 h, time 15 day
MV4-11 [16] = test: Antitumor activity against human MV4-11 cells xenografted in mouse assessed as reduction in CDK9 level in tumor at 5 mg/kg, ip qd measured after 15 days by immunoblotting analysis; assay type: functional, organism-based; conditions: time 15.0 day
MV4-11 [17] = test: Antitumor activity against human MV4-11 cells xenografted in mouse assessed as reduction in c-Myc level in tumor at 5 mg/kg, ip qd measured after 15 days by immunoblotting analysis; assay type: functional, organism-based; conditions: time 15.0 day
MV4-11 [18] = test: Antitumor activity against human MV4-11 cells xenografted in mouse assessed as reduction in Mcl level in tumor at 5 mg/kg, ip qd measured after 15 days by immunoblotting analysis; assay type: functional, organism-based; conditions: time 15.0 day

Cc1cc(=O)oc2cc(OCCCN3CCC(C(=O)Nc4ncc(SCc5ncc(C(C)(C)C)o5)s4)CC3)cc(O)c12
Activity [1]: Active | Emax [2]: 49.9% | Activity [3]: Tde | Activity [4]: Active | Activity (HCT-8): Active | Activity (U2932 [5]): Active | Activity (U2932 [6]): 38.7% | Activity [7]: inactive | Activity [8]: Active | Activity (U2932 [9]): Active | half-life [10]: 217 min | Tmax [11]: 15 min | MRT inf [12]: 40.4 min

Cc1cc(=O)oc2cc(O)cc(OCCCCCN3CCC(C(=O)Nc4ncc(SCc5ncc(C(C)(C)C)o5)s4)CC3)c12
Emax [2]: 59% | Activity [3]: Tde | Activity (HCT-8): Active | Activity (U2932 [5]): Active | Activity (U2932 [6]): 40.9% | Activity [7]: inactive | Activity [8]: Active | Activity (U2932 [9]): Active | half-life [10]: 280 min | Tmax [11]: 15 min | MRT inf [12]: 47.4 min | Activity (MV4-11 [13]): Active | inhibition in vivo at 5 mg/kg (MV4-11 [14]): 52% | Activity [15]: Non-Toxic | Activity (MV4-11 [16]): Active | Activity (MV4-11 [17]): Active | Activity (MV4-11 [18]): Active
